Data published in publication PMC7413254 (Nature Communications, 2020).
Where two headings read alike, the source gives them in different places.

Columns and labels:
PfCRT^3D7 [1] = target: T1, PfCRT^3D7 (Plasmodium falciparum, UniProt Q8IBZ9); assay: cell-based; assay type: cell-based; conditions: total [3H]CQ transport; for inhibition at 500 µM: [test solute] = 0.5 mM; for inhibition at 1000 µM: [test solute] = 1 mM; for inhibition at 2000 µM: [test solute] = 2 mM
Method in brief: (§1)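 Radioactivity accumulated per oocyte, read by liquid scintillation after 10% SDS lysis, served as the uptake measure. Incubations ran 1.5 h at 27.5 °C in ND96 at pH 5.5, matching digestive-vacuole acidity.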

PfCRT [2] = assay: Test of solutes as potential co-substrates for influx of VF-6 via PfCRT into the oocyte; assay type: cell-based, Plasmodium falciparum; design: key: X: Compounds that have been tested as potential co-substrates but are not required for influx of VF-6 via PfCRT into the oocyte; conditions: X = tested
non-expressing oocytes [3] = assay type: cell-based, Xenopus laevis; conditions: total [3H]CQ transport; for Uptake of [3H]CQ (% non-expressing oocyte control), trans-stimulation: non-expressing oocytes, normalised to the oocyte type control; for Uptake of [3H]CQ (% PfCRTDd2 control), trans-stimulation, non-expressing oocytes: mean ± SEM, SEM
Method in brief: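 Oocytes (ten per treatment, ≥4 independent frogs/days) were preloaded by injecting VF-6 in 25 nL ND96 at pH 5.0, 5.5, 6.0 or 7.0, or Na^+-free choline buffer, then uptake run 1.5 h, 27.5 °C, ND96 pH 5.5 by default. Internal concentrations assumed ~400 nL oocyte volume.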

non-expressing oocytes [4] = assay: cells; assay type: cell-based, Xenopus laevis; conditions: Xenopus laevis, Oocyte
Method in brief: as §1

PfCRT^Dd2 [5] = target: T2, PfCRT^Dd2 (Plasmodium falciparum, UniProt Q9N623, A220S/I356T/K76T/M74I/N326S/N75E/Q271E/R371I); assay: [3H]CQ uptake into Xenopus oocytes, cis-inhibition by unlabelled solute; assay type: cell-based
T2 sequence (Q9N623 whole entry A220S/I356T/K76T/M74I/N326S/N75E/Q271E/R371I): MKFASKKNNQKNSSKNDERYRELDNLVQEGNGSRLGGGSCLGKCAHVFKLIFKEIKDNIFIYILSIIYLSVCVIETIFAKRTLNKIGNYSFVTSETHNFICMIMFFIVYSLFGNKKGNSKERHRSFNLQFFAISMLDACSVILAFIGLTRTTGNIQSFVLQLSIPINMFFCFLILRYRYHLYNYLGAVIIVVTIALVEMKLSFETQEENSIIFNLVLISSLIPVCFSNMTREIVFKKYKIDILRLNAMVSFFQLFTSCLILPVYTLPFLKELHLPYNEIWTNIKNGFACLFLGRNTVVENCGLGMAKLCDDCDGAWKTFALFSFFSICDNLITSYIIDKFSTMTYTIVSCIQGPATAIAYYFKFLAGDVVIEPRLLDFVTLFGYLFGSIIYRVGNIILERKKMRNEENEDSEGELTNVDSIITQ
Method in brief: as §1

PfCRT^Ecu1110 [6] = target: T3, PfCRT^Ecu1110 (Plasmodium falciparum, UniProt Q9N623, A220S/I356L/K76T/N326D); assay: as above; assay type: cell-based
T3 sequence (Q9N623 whole entry A220S/I356L/K76T/N326D): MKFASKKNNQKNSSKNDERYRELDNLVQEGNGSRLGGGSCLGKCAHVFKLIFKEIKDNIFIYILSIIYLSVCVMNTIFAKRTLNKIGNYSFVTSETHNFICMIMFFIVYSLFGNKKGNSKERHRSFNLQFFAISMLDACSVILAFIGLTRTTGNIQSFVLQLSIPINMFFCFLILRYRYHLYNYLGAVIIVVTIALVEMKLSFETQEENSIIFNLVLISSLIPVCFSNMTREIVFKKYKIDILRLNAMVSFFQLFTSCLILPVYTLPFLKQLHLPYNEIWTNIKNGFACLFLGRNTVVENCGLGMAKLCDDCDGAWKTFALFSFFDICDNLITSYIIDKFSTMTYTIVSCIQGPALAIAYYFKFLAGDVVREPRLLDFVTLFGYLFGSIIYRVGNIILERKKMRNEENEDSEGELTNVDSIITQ
Method in brief: as §1

PfCRT [7] = assay: Potential co-substrates tested for influx of VF-6 via PfCRT into the oocyte; assay type: cell-based, Plasmodium falciparum; design: key: X: Compounds that have been tested as potential co-substrates but are not required for influx of VF-6 via PfCRT into the oocyte
PfNT1 = target: T4, PfNT1 (Plasmodium falciparum, UniProt Q8IDM6); assay: cell-based; assay type: cell-based; conditions: for activity at 5000 µM: total [3H]CQ transport
T4 construct: expressed in transfected cells; host or cells: Xenopus laevis oocytes (stage V-VI), cRNA-injected
T4 sequence (Q8IDM6 whole entry): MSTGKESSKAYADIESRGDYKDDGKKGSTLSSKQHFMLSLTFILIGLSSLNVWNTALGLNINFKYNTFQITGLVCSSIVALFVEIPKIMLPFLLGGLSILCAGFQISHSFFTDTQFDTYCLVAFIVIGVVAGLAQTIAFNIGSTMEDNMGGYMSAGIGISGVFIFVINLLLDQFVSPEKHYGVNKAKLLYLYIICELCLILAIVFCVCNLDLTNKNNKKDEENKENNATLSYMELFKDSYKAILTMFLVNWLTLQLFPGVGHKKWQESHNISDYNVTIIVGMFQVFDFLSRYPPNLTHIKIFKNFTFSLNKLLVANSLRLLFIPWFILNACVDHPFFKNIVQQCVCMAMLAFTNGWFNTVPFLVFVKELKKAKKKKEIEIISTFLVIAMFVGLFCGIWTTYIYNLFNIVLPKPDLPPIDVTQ
Method in brief: (§2)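 Transport measured in Xenopus oocytes expressing the transporters, 1.5 h at 27.5 °C in ND96 pH 5.5 unless noted. For trans-stimulation, VF-6 injected in 25 nL ND96 at pH 5.0–7.0 or Na^+-free (choline) buffer; intracellular levels based on ~400 nL oocyte volume. Ten oocytes per treatment, ≥4 experiments.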

PfCRT^Dd2 [8] = target: T2, PfCRT^Dd2; assay: cell-based; assay type: cell-based; conditions: […]; for activity at 45000 µM: [test solute]i = 45 mM (30 mM for some solutes due to solubility)
Method in brief: as §2

PfCRT^Ecu1110 [9] = target: T3, PfCRT^Ecu1110; assay: cell-based; assay type: cell-based; conditions: […]
Method in brief: as §2

PfCRT^3D7 [10] = target: T1, PfCRT^3D7; assay: cell-based; assay type: cell-based
Method in brief: as §2

[11] = PfCRT3D7 oocytes, normalised to the oocyte type control, read-out: Uptake of [3H]CQ (% PfCRT3D7 control), cis-inhibition
[12] = mean ± SEM, SEM, read-out: Uptake of [3H]CQ (% PfCRTDd2 control), cis-inhibition, PfCRT3D7
[13] = read-out: Uptake of [3H]CQ (% PfCRTDd2 control), cis-inhibition, non-expressing oocytes, SEM
[14] = read-out: Uptake of [3H]CQ (% non-expressing oocyte control), cis-inhibition
[15] = read-out: PfCRT-mediated [3H]CQ transport, cis-inhibition (% PfCRTDd2 control)
[16] = read-out: Uptake of [3H]CQ (% PfCRTDd2 control), cis-inhibition, PfCRTDd2, SEM
[17] = read-out: PfCRT-mediated [3H]CQ transport, cis-inhibition (% PfCRTEcu1110 control)
[18] = read-out: Uptake of [3H]CQ (% PfCRTDd2 control), cis-inhibition, PfCRTEcu1110, SEM
[19] = read-out: Uptake of [3H]CQ (% PfCRTEcu1110 control), cis-inhibition
[20] = read-out: [3H]CQ transport (% PfCRTEcu1110 control), cis-inhibition, PfCRTEcu1110, SEM

T1 sequence (Q8IBZ9 59-398): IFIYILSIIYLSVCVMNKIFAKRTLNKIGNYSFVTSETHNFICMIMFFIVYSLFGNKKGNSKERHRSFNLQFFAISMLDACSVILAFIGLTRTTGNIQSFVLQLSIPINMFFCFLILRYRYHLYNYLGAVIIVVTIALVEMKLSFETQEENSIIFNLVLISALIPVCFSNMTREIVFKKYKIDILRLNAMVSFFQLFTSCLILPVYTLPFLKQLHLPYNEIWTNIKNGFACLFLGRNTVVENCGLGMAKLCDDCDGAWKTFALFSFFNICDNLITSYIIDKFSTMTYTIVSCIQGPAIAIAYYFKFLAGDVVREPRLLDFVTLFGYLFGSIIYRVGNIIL

With `NCCCC[C@H](N)C(=O)O` [L-lysine] the inhibition at 500 µM (PfCRT^3D7 [1]; [11]) was 100 ± 4.8%, the inhibition at 1000 µM (PfCRT^3D7 [1]; [11]) was 101 ± 3.7% and the inhibition at 2000 µM (PfCRT^3D7 [1]; [11]) was 100 ± 4.7%. The inhibition at 500 µM (PfCRT^3D7 [1]; [12]) was 3.4 ± 0.07%, the inhibition at 1000 µM (PfCRT^3D7 [1]; [12]) was 3.3 ± 0.03% and the inhibition at 2000 µM (PfCRT^3D7 [1]; [12]) was 3.1 ± 0.07%. For the same compound, the “Tested as potential co-substrate but not required for influx of VF-6 via PfCRT into the oocyte” value (PfCRT [2]) was “X”, the “Uptake of [3H]CQ (% non-expressing oocyte control), trans-stimulation” value (non-expressing oocytes [3]; [test solute]i = 5 mM) was 101 ± 3.2 % non-expressing oocyte control and the “Uptake of [3H]CQ (% non-expressing oocyte control), trans-stimulation” value (non-expressing oocytes [3]; [test solute]i = 45 mM (30 mM for some solutes due to solubility)) was 99 ± 3.2 % non-expressing oocyte control. The “Uptake of [3H]CQ (% PfCRTDd2 control), trans-stimulation, non-expressing oocytes” value (non-expressing oocytes [3]; [test solute]i = 5 mM (intracellular)) was 2.3 ± 0.03 % PfCRTDd2 control, the “Uptake of [3H]CQ (% PfCRTDd2 control), trans-stimulation, non-expressing oocytes” value (non-expressing oocytes [3]; [test solute]i = 45 mM (intracellular; 30 mM for some solutes due to solubility)) was 3.3 ± 0.03 % PfCRTDd2 control and the inhibition at 500 µM (non-expressing oocytes [4]; [13]) was 2.9 ± 0.03%. It also gave an inhibition at 1000 µM (non-expressing oocytes [4]; [13]) of 3.3 ± 0.07%, an inhibition at 2000 µM (non-expressing oocytes [4]; [13]) of 3.3 ± 0.03% and an inhibition at 500 µM (non-expressing oocytes [4]; [14]) of 101 ± 6.3%. The inhibition at 1000 µM (non-expressing oocytes [4]; [14]) was 101 ± 3.6%, the inhibition at 2000 µM (non-expressing oocytes [4]; [14]) was 100 ± 3.6% and the inhibition at 500 µM (PfCRT^Dd2 [5]; [15]) was 93 ± 5.2%. The inhibition at 1000 µM (PfCRT^Dd2 [5]; [15]) was 99 ± 3.6%, the inhibition at 2000 µM (PfCRT^Dd2 [5]; [15]) was 95 ± 4.1% and the inhibition at 500 µM (PfCRT^Dd2 [5]; [16]) was 96 ± 3.1%. The inhibition at 1000 µM (PfCRT^Dd2 [5]; [16]) was 100 ± 2.8%, the inhibition at 2000 µM (PfCRT^Dd2 [5]; [16]) was 97 ± 3.2% and the inhibition at 500 µM (PfCRT^Ecu1110 [6]; [17]) was 93 ± 6.7%. It also gave an inhibition at 1000 µM (PfCRT^Ecu1110 [6]; [17]) of 97 ± 5.2%, an inhibition at 2000 µM (PfCRT^Ecu1110 [6]; [17]) of 96 ± 4.1% and an inhibition at 500 µM (PfCRT^Ecu1110 [6]; [18]) of 31 ± 1.9%. For the same compound, the inhibition at 1000 µM (PfCRT^Ecu1110 [6]; [18]) was 32 ± 1.8%, the inhibition at 2000 µM (PfCRT^Ecu1110 [6]; [18]) was 32 ± 1% and the inhibition at 500 µM (PfCRT^Ecu1110 [6]; [19]) was 95 ± 3.6%. For the same compound, the inhibition at 1000 µM (PfCRT^Ecu1110 [6]; [19]) was 99 ± 4.6%, the inhibition at 2000 µM (PfCRT^Ecu1110 [6]; [19]) was 98 ± 3.2% and the inhibition at 500 µM (PfCRT^Ecu1110 [6]; [20]) was 28 ± 1.6%. The inhibition at 1000 µM (PfCRT^Ecu1110 [6]; [20]) was 29 ± 0.2%, the inhibition at 2000 µM (PfCRT^Ecu1110 [6]; [20]) was 29 ± 0.2% and the “Tested as potential co-substrate but not required for influx of VF-6 via PfCRT into the oocyte” value (PfCRT [7]) was “X”. The activity at 5000 µM (PfNT1; PfNT1 oocytes, [test solute]i = 5 mM, normalised to the oocyte type control, read-out: Uptake of [3H]CQ (% PfNT1 control), trans-stimulation) was 100 ± 3.6%, the activity at 45000 µM (PfNT1; SEM, read-out: Uptake of [3H]CQ (% PfCRTDd2 control), trans-stimulation, PfNT1) was 2.8 ± 0.05% and the activity at 45000 µM (PfNT1; read-out: Uptake of [3H]CQ (% PfNT1 control), trans-stimulation) was 99 ± 3.7%. It also gave an activity at 5000 µM (PfNT1; [test solute]i = 5 mM (intracellular), mean ± SEM, SEM, read-out: Uptake of [3H]CQ (% PfCRTDd2 control), trans-stimulation, PfNT1) of 2.1 ± 0.01%, an activity at 5000 µM (PfCRT^Dd2 [8]; pH 5.5, read-out: PfCRT-mediated [3H]CQ transport, trans-stimulation (% PfCRTDd2 control), [test solute]i = 5 mM (intracellular), PfCRTDd2 oocytes, normalised to oocyte type control) of 97 ± 3.4% and an activity at 5000 µM (PfCRT^Dd2 [8]; pH 5.5, read-out: Uptake of [3H]CQ (% PfCRTDd2 control), trans-stimulation, PfCRTDd2, total [3H]CQ transport, [test solute]i = 5 mM (intracellular), mean ± SEM, SEM) of 99 ± 2.4%. For the same compound, the activity at 5000 µM (PfCRT^Dd2 [8]; pH 5.5, read-out: Uptake of [3H]CQ (% PfCRTDd2 control), trans-stimulation, PfCRTDd2 oocytes, [test solute]i = 5 mM, total [3H]CQ transport, normalised to the oocyte type control) was 99 ± 2.4%, the activity at 45000 µM (PfCRT^Dd2 [8]; pH 5.5, read-out: Uptake of [3H]CQ (% PfCRTDd2 control), trans-stimulation, PfCRTDd2 oocytes, total [3H]CQ transport, normalised to the oocyte type control) was 97 ± 3.2% and the activity at 5000 µM (PfCRT^Dd2 [8]; pH 5.5, read-out: [3H]CQ transport (% PfCRTDd2 control), trans-stimulation, PfCRTDd2, trans-stimulation, [test solute]i = 5 mM (injected), PfCRT-mediated component (background subtracted), mean ± SEM, SEM) was 97 ± 3.4%. It also gave an activity at 45000 µM (PfCRT^Dd2 [8]; pH 5.5, read-out: [3H]CQ transport (% PfCRTDd2 control), trans-stimulation, PfCRTDd2, trans-stimulation, PfCRT-mediated component (background subtracted), mean ± SEM, SEM) of 95 ± 4.5%, an activity at 5000 µM (PfCRT^Ecu1110 [9]; pH 5.5, read-out: PfCRT-mediated [3H]CQ transport, trans-stimulation (% PfCRTEcu1110 control), [test solute]i = 5 mM (intracellular), PfCRTEcu1110 oocytes, normalised to oocyte type control) of 95 ± 3.8% and an activity at 5000 µM (PfCRT^Ecu1110 [9]; pH 5.5, read-out: Uptake of [3H]CQ (% PfCRTEcu1110 control), trans-stimulation, PfCRTEcu1110 oocytes, [test solute]i = 5 mM, total [3H]CQ transport, normalised to the oocyte type control) of 97 ± 4.4%. The activity at 45000 µM (PfCRT^Ecu1110 [9]; pH 5.5, read-out: Uptake of [3H]CQ (% PfCRTEcu1110 control), trans-stimulation, PfCRTEcu1110 oocytes, [test solute]i = 45 mM (30 mM for some solutes due to solubility), total [3H]CQ transport, normalised to the oocyte type control) was 99 ± 4.2%, the activity at 5000 µM (PfCRT^Ecu1110 [9]; read-out: Uptake of [3H]CQ (% PfCRTDd2 control), trans-stimulation, PfCRTEcu1110, total [3H]CQ transport, [test solute]i = 5 mM (intracellular), mean ± SEM, SEM) was 35 ± 1.8% and the activity at 45000 µM (PfCRT^Ecu1110 [9]; read-out: Uptake of [3H]CQ (% PfCRTDd2 control), trans-stimulation, PfCRTEcu1110, total [3H]CQ transport, [test solute]i = 45 mM (intracellular; 30 mM for some solutes due to solubility), mean ± SEM, SEM) was 35 ± 1.6%. For the same compound, the activity at 5000 µM (PfCRT^3D7 [10]; PfCRT3D7 oocytes, [test solute]i = 5 mM, total [3H]CQ transport, normalised to the oocyte type control, read-out: Uptake of [3H]CQ (% PfCRT3D7 control), trans-stimulation) was 99 ± 3.7%, the “[3H]CQ transport (% PfCRT3D7 control), trans-stimulation, PfCRT3D7” value (PfCRT^3D7 [10]; SEM) was 0.3 ± 0.02 % PfCRT3D7 control and the activity at 5000 µM (PfCRT^3D7 [10]; [test solute]i = 5 mM (intracellular), PfCRT3D7 oocytes, normalised to oocyte type control, read-out: PfCRT-mediated [3H]CQ transport, trans-stimulation (% PfCRT3D7 control)) was 97 ± 2%. For the same compound, the activity at 45000 µM (PfCRT^3D7 [10]; SEM, read-out: Uptake of [3H]CQ (% PfCRTDd2 control), trans-stimulation, PfCRT3D7) was 3.3 ± 0.06%, the activity at 45000 µM (PfCRT^3D7 [10]; read-out: PfCRT-mediated [3H]CQ transport, trans-stimulation (% PfCRT3D7 control)) was 96 ± 1.9% and the activity at 45000 µM (PfCRT^3D7 [10]; read-out: Uptake of [3H]CQ (% PfCRT3D7 control), trans-stimulation) was 98 ± 2.4%. For the same compound, the activity at 5000 µM (PfCRT^3D7 [10]; total [3H]CQ transport, [test solute]i = 5 mM (intracellular), mean ± SEM, SEM, read-out: Uptake of [3H]CQ (% PfCRTDd2 control), trans-stimulation, PfCRT3D7) was 3.3 ± 0.05%.
